Key:
[1] = target: T1, Hsp90 (Homo sapiens, UniProt P07900); experiment: Fluorescence Polarization (FP) binding, GM-BODIPY displacement from Hsp90; conditions: GM-BODIPY tracer, 4° C. for 4 hours
T1 construct: purchased Stressgen SPP-776
Description: GM-BODIPY (PerkinElmer, CUSN60342000MG) was previously dissolved in DMSO to obtain 10 mM stock solutions and kept at −20° C. until use.
Hsp90 (Stressgen, SPP-776), was previously dissolved in assay buffer (HFB) to form 2.2 μM stock solutions and kept at −80° C. until use.
The compounds were previously dissolved in DMSO to obtain stock solutions and kept at −20° C. The day of experiment, the compounds were prepared by serial dilutions in assay buffer (HFB) containing 20 mM HEPES (K) pH 7.3, 50 mM KCl, 5 mM MgCl2, 20 mM Na2MoO4 and 0.01% NP40. Before each use, 0.1 mg/ml Bovine Gamma globulin and 2 mM DTT were freshly added.
Fluorescence Polarization (FP) was performed in Opti-Plate™-96F well plates (Perkin Elmer, Zaventem, Belgium) using a plate reader (Wallac Envision 2101 multilabel reader, Perkin Elmer, Zaventem, Belgium). To evaluate the binding affinity of the molecules, 50 μl of the GM-BODIPY solution (100 nM) were added to 125 nM of Hsp90 in the presence of 5 μl of the test compounds at increasing concentrations. The plate was mixed on a shaker at 4° C. for 4 hours, and the FP values in mP (millipolarization units) were recorded. The IC50 values were calculated as the inhibitor concentration where 50% of the tracer is displaced; each data point is the result of the average of triplicate wells, and was determined from a plot using nonlinear least-squares analysis. Curve fitting was performed using
Prism GraphPad software program (GraphPad software, Inc., San Diego, Calif.).

[2] = test system: NCI-H460 non-small cell lung carcinoma; experiment: Cytotoxicity assay, sulphorodamine B test, NCI-H460; format: cell-based; conditions: Homo sapiens, NCI-H460; 72 h, sulphorodamine B
Description: (§1) The antiproliferative activity of novel Hsp90 inhibitors was also evaluated on various cancerous cell lines by means of the sulphorodamine B test (i.e., NCI-H460 non-small cell lung carcinoma, A431 epidermoid, A2780 ovarian, MDA-MB436 triple-negative breast, U87MG glioblastoma, A498 renal, HCT116 colon, MeWo melanoma, MiaPaCa2 pancreas, HeLa cervix uteri, NB4 promyelocytic leukemia). NCI-H460, A431, MDA-MB436, A2780, A498, HeLa, NB4 tumour cells were grown in RPMI 1640 containing 10% fetal bovine serum (i.e., FBS from GIBCO), L-glutamine, and 50 μg/ml gentamycin sulfate.
(§2) All cell lines were maintained in a 37° C. incubator with saturated humidity and an atmosphere containing 95% air and 5% CO2, and were sub-cultured every 2-3 days. Tumour cells were seeded in 96-well tissue culture plates at approximately 10% confluence and were allowed to attach and recover for 24 h.
(§3) Varying concentrations of the drugs were then added to each well to calculate their IC50 value (the concentration which inhibits the 50% of cell survival). The plates were incubated at 37° C. for 72 h. At the end of the treatment, the plates were washed by remotion of the supernatant and addition of PBS 3 times. 200 μl PBS and 50 μl of cold 80% trichloroacetic acid (TCA) were added. The plates were incubated on ice for at least 1 h. TCA was removed, the plates were washed 3 times by immersion in distilled-water and dried on paper and at 40° C. for […]. Then 200 μl of 0.4% sulphorodamine B in 1% acetic acid were added. The plates were incubated at room temperature for 30 min. Sulphorodamine B was removed, the plates were washed by immersion in 1% acetic acid for 3 times, then they were dried on paper and at 40° C. for 5 min. Then, 200 μl Tris 10 mM were added, the plates were kept under stirring for 20 min. The cell survival was determined as optical density by a Multiskan […] at 540 nm. The amount of cells killed was calculated as the percentage decrease in sulphorodamine B binding compared with control cultures.

[3] = test system: A431 epidermoid; experiment: Sulphorodamine B test at single concentration, A431; format: cell-based; conditions: Homo sapiens, A-431; 500 nM, 72 h
Description: as §1, §2, §3
(§4) The other cell lines were screened against one single concentration of the various inhibitors (i.e., 500 nM), all experiments being made in octuplicate, following the protocol described at example 35. Since NB4 cell line was grown in suspension, a further step of centrifugation (i.e., 1600 g for 10 min) was added after the 72 hour incubation period.

[4] = test system: A2780 ovarian; experiment: Sulphorodamine B test at single concentration, A2780; format: cell-based; conditions: Homo sapiens, 500 nM, 72 h
Description: as §1, §2, §3, §4

[5] = test system: MDA-MB436 triple-negative breast; experiment: Sulphorodamine B test at single concentration, MDA-MB436; format: cell-based; conditions: Homo sapiens, MDA-MB-436; 500 nM, 72 h
Description: as §1, §2, §3, §4

[6] = test system: U87MG glioblastoma; experiment: Sulphorodamine B test at single concentration, U87MG; format: cell-based; conditions: Homo sapiens, U-87 MG; 500 nM, 72 h
Description: as §1
(§5) MeWo and U87-MG cells were cultured in Eagle's Minimum Essential Medium (i.e., EMEM) containing 10% FBS, L-glutamine, 1 mM sodium pyruvate, 0.1 mM non-essential amino acids, 1.5 g/l sodium bicarbonate, and 50 μg/ml gentamycin sulphate.
as §2, §3, §4

[7] = test system: A498 renal; experiment: Sulphorodamine B test at single concentration, A498; format: cell-based; conditions: Homo sapiens, 500 nM, 72 h
Description: as §1, §2, §3, §4

[8] = test system: HCT116 colon; experiment: Sulphorodamine B test at single concentration, HCT116; format: cell-based; conditions: Homo sapiens, HCT-116; 500 nM, 72 h
Description: as §1
HCT116 cells were cultured in McCoy's medium containing 10% FBS, L-glutamine, and 50 μg/ml gentamycin sulfate.
as §2, §3, §4

[9] = test system: MeWo melanoma; experiment: Sulphorodamine B test at single concentration, MeWo; format: cell-based; conditions: Homo sapiens, 500 nM, 72 h
Description: as §1, §5, §2, §3, §4

[10] = test system: MiaPaCa2 pancreas; experiment: Sulphorodamine B test at single concentration, MiaPaCa2; format: cell-based; conditions: Homo sapiens, MIA PaCa-2; 500 nM, 72 h
Description: as §1
MiaPaCa2 cells were cultured in DMEM medium containing 10% FBS, L-glutamine, and 50 μg/ml gentamycin sulfate.
as §2, §3, §4

[11] = test system: HeLa cervix uteri; experiment: Sulphorodamine B test at single concentration, HeLa; format: cell-based; conditions: Homo sapiens, 500 nM, 72 h
Description: as §1, §2, §3, §4

[12] = test system: NB4 promyelocytic leukemia; experiment: Sulphorodamine B test at single concentration, NB4; format: cell-based; conditions: 500 nM, 72 h, suspension cells
Description: as §1, §2, §3, §4

`CCNC(=O)c1nnn(-c2cc(C(C)C)c(O)cc2O)c1-c1ccc(CN(CC)CCO)cc1` [Example 7, 1-(2,4-dihydroxy-5-isopropyl-phenyl)-5-(4-{[ethyl-(2-hydroxy-ethyl)-amino]-methyl}-phenyl)-1H-[1,2,3]triazole-4-carboxylic acid ethylamide] showed an IC50 [1] of under 50 nM, an IC50 [2] of 50 to 100 nM and an inhibition at 0.5 µM [3] of at least 50%. The inhibition at 0.5 µM [4] was at least 50%, the inhibition at 0.5 µM [5] was at least 50% and the inhibition at 0.5 µM [6] was at least 50%. For the same compound, the inhibition at 0.5 µM [7] was at least 50%, the inhibition at 0.5 µM [8] was at least 50% and the inhibition at 0.5 µM [9] was at least 50%. It also gave an inhibition at 0.5 µM [10] of at least 50%, an inhibition at 0.5 µM [11] of at least 50% and an inhibition at 0.5 µM [12] of at least 50%.

`CCNC(=O)c1nnn(-c2cc(C(C)C)c(O)cc2O)c1-c1ccc(CN2CCCCC2CCO)cc1` (stereo not drawn) [Example 8, 1-(2,4-dihydroxy-5-isopropyl-phenyl)-5-{4-[2-(2-hydroxy-ethyl)-piperidin-1-ylmethyl]-phenyl}-1H-[1,2,3]triazole-4-carboxylic acid ethylamide] gave an IC50 [1] of under 50 nM, an IC50 [2] of 100 to 500 nM and an inhibition at 0.5 µM [3] of at least 50%. It also gave an inhibition at 0.5 µM [4] of at least 50%, an inhibition at 0.5 µM [5] of at least 50% and an inhibition at 0.5 µM [6] of at least 50%. It also gave an inhibition at 0.5 µM [7] of 30 to 50%, an inhibition at 0.5 µM [8] of at least 50% and an inhibition at 0.5 µM [9] of at least 50%. It also gave an inhibition at 0.5 µM [10] of at least 50%, an inhibition at 0.5 µM [11] of at least 50% and an inhibition at 0.5 µM [12] of at least 50%.

`CCNC(=O)c1nnn(-c2cc(C(C)C)c(O)cc2O)c1-c1ccc(CN2CCCCC2)cc1` [Example 9, 1-(2,4-dihydroxy-5-isopropyl-phenyl)-5-(4-piperidin-1-ylmethyl-phenyl)-1H-[1,2,3]triazole-4-carboxylic acid ethylamide] gave an IC50 [1] of under 50 nM, an IC50 [2] of under 50 nM and an inhibition at 0.5 µM [3] of at least 50%. It also gave an inhibition at 0.5 µM [4] of at least 50%, an inhibition at 0.5 µM [5] of at least 50% and an inhibition at 0.5 µM [6] of at least 50%. It also gave an inhibition at 0.5 µM [7] of at least 50%, an inhibition at 0.5 µM [8] of at least 50% and an inhibition at 0.5 µM [9] of at least 50%. The inhibition at 0.5 µM [10] was at least 50%, the inhibition at 0.5 µM [11] was at least 50% and the inhibition at 0.5 µM [12] was at least 50%.

With `CCNC(=O)c1nnn(-c2cc(C(C)C)c(O)cc2O)c1-c1ccc(CN2CCN(C)CC2)cc1` [Example 11, 1-(2,4-dihydroxy-5-isopropyl-phenyl)-5-[4-(4-methyl-piperazin-1-ylmethyl)-phenyl]-1H-[1,2,3]triazole-4-carboxylic acid ethylamide] the IC50 [1] was under 50 nM, the IC50 [2] was under 50 nM and the inhibition at 0.5 µM [3] was at least 50%. For the same compound, the inhibition at 0.5 µM [4] was at least 50%, the inhibition at 0.5 µM [5] was at least 50% and the inhibition at 0.5 µM [6] was at least 50%. For the same compound, the inhibition at 0.5 µM [7] was at least 50%, the inhibition at 0.5 µM [8] was at least 50% and the inhibition at 0.5 µM [9] was at least 50%. For the same compound, the inhibition at 0.5 µM [10] was at least 50%, the inhibition at 0.5 µM [11] was at least 50% and the inhibition at 0.5 µM [12] was at least 50%.
